Where two headings read alike, the source gives them in different places.
How the values were obtained:
[1] = target: Kv11.1 (hERG) (Homo sapiens (Human), UniProt Q12809); test: Kv11.1 (hERG) ion channel activity (patch clamp assay), HEK293 cells transfected with hERG gene
[2] = target: DNA-PK (Homo sapiens (Human), UniProt P78527); test: DNA-PK assay (biochemical), flashplate 33P-ATP kinase assay
Procedure, shortened: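 Radiometric kinase reaction in streptavidin-coated flashplates, stopped with 200 mM EDTA, then 30 min room-temperature incubation and saline washes.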

[3] = target: DNA-PK phosphorylation at serine 2056 (Homo sapiens (Human), UniProt P78527); test: DNA-PK phosphorylation at serine 2056 (cellular), bleomycin-treated HCT116 cells, ELISA; type: cell-based; conditions: read-out: IC50 pDNA-PK
Procedure, shortened: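 After overnight seeding, HCT116 cells received compound with 10 μM bleomycin for 6 h; phospho-DNA-PK ELISA signals were scaled to total DNA-PKcs, DMSO serving as blank.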

[4] = read-out: Ki [Kv1.11 hERG], hERG patch clamp assay (cells without asterisk)
[5] = cellular DNA-PK phosphorylation at serine 2056, HCT116
[6] = read-out: Ki [Kv1.11 hERG], patch clamp, HEK293 transfected with hERG gene
[7] = cellular, HCT116 cells, 10 μM bleomycin, six hours
[8] = Ki [Kv1.11 hERG], patch clamp, HEK293 transfected with hERG gene
[9] = Ki [Kv1.11 hERG], hERG patch clamp assay (cells without asterisk)

Sequence of Kv11.1 (hERG) (Q12809 whole entry): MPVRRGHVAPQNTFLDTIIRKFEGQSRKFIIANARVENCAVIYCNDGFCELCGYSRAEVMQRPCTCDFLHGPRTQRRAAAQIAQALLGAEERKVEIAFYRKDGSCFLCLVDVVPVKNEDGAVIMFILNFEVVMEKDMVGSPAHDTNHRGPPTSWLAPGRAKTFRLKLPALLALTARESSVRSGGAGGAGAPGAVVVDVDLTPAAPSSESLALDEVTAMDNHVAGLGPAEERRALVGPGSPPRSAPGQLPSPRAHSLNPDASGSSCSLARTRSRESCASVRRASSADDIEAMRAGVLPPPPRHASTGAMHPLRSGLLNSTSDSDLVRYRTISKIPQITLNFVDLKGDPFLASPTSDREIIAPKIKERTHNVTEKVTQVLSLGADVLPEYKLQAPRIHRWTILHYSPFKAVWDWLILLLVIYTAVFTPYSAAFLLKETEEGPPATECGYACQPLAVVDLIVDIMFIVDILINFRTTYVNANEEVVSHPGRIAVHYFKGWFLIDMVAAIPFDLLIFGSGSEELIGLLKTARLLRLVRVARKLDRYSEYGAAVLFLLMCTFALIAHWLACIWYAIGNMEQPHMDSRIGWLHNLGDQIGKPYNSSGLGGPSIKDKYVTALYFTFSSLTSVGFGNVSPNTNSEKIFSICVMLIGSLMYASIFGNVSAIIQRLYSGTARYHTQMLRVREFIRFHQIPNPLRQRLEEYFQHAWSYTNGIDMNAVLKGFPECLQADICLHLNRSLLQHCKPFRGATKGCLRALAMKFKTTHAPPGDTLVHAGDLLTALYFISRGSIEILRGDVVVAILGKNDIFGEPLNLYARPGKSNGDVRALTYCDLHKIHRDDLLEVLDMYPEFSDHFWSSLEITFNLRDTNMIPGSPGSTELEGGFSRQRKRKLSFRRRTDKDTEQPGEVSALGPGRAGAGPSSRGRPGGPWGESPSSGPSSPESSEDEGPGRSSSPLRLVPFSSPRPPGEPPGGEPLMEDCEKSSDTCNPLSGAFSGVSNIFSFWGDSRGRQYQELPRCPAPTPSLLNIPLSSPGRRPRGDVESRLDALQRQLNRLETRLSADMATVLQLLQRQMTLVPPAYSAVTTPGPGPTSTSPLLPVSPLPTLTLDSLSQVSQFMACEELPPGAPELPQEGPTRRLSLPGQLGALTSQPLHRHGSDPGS

SMILES	IC50 ([2]; biochemical DNA-PK assay) [nM]	IC50 [3, 5] [nM]	IC50 ([2]; enzymatic, 5 μM ATP) [nM]	IC50 [3, 7] [nM]	other results
OC(c1cccc(-c2ncnc3cc(N4CCOCC4)ccc23)c1)(c1nccs1)C(F)(F)F (stereo not drawn) [Example 159, 2,2,2-Trifluoro-1-[3-(7-morpholin-4-yl-quinazolin-4-yl)-phenyl]-1-thiazol-2-ylethanol]	–	–	–	–	Ki ([1]; read-out: Ki [Kv1.11 hERG], Table 5): < 10000 nM; IC50 ([2]; Table 5): 7 to 30 nM; IC50 ([3]; Table 5, HCT116 cells): 10000 to 30000 nM
O=c1[nH]nc(C(O)c2ccc(F)c(-c3ncnc4cc(N5CCOCC5)ccc34)c2)c2ccsc12 (stereo not drawn) [Example 338, 4-[[4-Fluoro-3-(7-morpholino-quinazolin-4-yl)-phenyl]hydroxy-methyl]-6H-thieno[2,3-d}-pyridazin-7-one]	< 3	500 to 5000	–	–	Ki [1, 4]: > 25000 nM
Cc1cc(F)c(-c2ncnc3cc(N4CCOCC4)ccc23)cc1C(O)c1nccs1 (stereo not drawn) [Example 210, [4-Fluoro-2-methyl-5-(7-morpholin-4-yl-quinazolin-4-yl)-phenyl]thiazol-2-ylmethanol]	–	–	3 to 7	500 to 5000	Ki [1, 6]: > 25000 nM
COc1ccc(C(O)c2cc(-c3ncnc4cc(N5CCOCC5)sc34)c(F)cc2Cl)nn1 (single isomer, unassigned) [Example 126, [2-Chloro-4-fluoro-5-(6-morpholin-4-ylthieno[3,2-d}-pyrimidin-4-yl)-phenyl]-(6-methoxy-pyridazin-3-yl)-methanol]	–	–	< 3	< 500	Ki ([1]; human, HEK293 cells stably transfected with the hERG gene, Ki [Kv1.11 hERG], patch clamp, HEK293 transfected with hERG gene): 10000 to 15000 nM
OCCOc1nccnc1C(O)c1ccc(F)c(-c2ncnc3cc(N4CCOCC4)ccc23)c1 (stereo not drawn) [Example 105, 2-(3-{[4-fluoro-3-(7-morpholin-4-yl-quinazolin-4-yl)-phenyl]hydroxy-methyl}pyrazin-2-yl-oxy)ethanol]	–	–	7 to 30	10000 to 30000	Ki [1, 6]: > 25000 nM
NC(=O)C(c1cccnc1)c1cc(-c2ncnc3cc(N4CCOCC4)ccc23)c(F)cc1F (stereo not drawn) [Example 294, 2-[2,4-Difluoro-5-(7-morpholin-4-yl-quinazolin-4-yl)-phenyl]-2-pyridin-3-ylacetamide]	3 to 7	10000 to 30000	–	–	Ki [1, 4]: > 25000 nM
OC(c1cn2ccnc2cn1)c1cc(-c2ncnc3cc(N4CCOCC4)ccc23)c(F)cc1F (stereo not drawn) [Example 223, [2,4-Difluoro-5-(7-morpholin-4-yl-quinazolin-4-yl)-phenyl]imidazo-[1,2-a]pyrazin-6-yl-methanol]	–	–	–	–	Ki ([1]; read-out: Ki [Kv1.11 hERG], Table 7): > 25000 nM; IC50 ([2]; Table 7): 7 to 30 nM; IC50 ([3]; Table 7, HCT116 cells): 500 to 5000 nM
O=c1ccc(C(O)c2cc(-c3ncnc4cc(N5CCOCC5)ccc34)c(F)cc2Cl)nn1CCO (stereo not drawn) [Example 99, 6-{[2-Chloro-4-fluoro-5-(7-morpholin-4-yl-quinazolin-4-yl)phenyl]-hydroxymethyl}-2-(2-hydroxy-ethyl)-2H-pyridazin-3-one]	–	–	3 to 7	500 to 5000	Ki [1, 6]: > 25000 nM
OC(c1cc(-c2ncnc3cc(N4CCOCC4)ccc23)c(F)cc1F)c1ncnc2ccoc12 (stereo not drawn) [Example 444, [2,4-Difluoro-5-(7-morpholin-4-yl-quinazolin-4-yl)-phenyl]furo[3,2-d}-pyrimidin-4-yl-methanol]	< 3	500 to 5000	–	–	Ki [1, 4]: > 25000 nM
OC(c1ccc2nccn2n1)c1cc(-c2ncnc3cc(N4CCOCC4)ccc23)c(F)cc1F (stereo not drawn) [Example 51, [2,4-Difluoro-5-(7-morpholin-4-yl-quinazolin-4-yl)phenyl]-imidazo[1,2-b]pyridazin-6-ylmethanol]	–	–	< 3	< 500	Ki [1, 8]: 15000 to 25000 nM
NC(=O)C(c1ccc(F)c(-c2ncnc3cc(N4CCOCC4)ccc23)c1)c1cncc(F)c1Cl (stereo not drawn) [Example 322, 2-(4-Chloro-5-fluoro-pyridin-3-yl)-2-[4-fluoro-3-(7-morpholin-4-yl-quinazolin-4-yl)-phenyl]acetamide]	3 to 7	500 to 5000	–	–	Ki [1, 9]: 10000 to 15000 nM
Cc1cc(C(O)c2cc(-c3ncnc4cc(N5CCOCC5)ccc34)c(F)cc2Cl)n(C)c(=O)c1 (stereo not drawn) [Example 339, 6-{[2-Chloro-4-fluoro-5-(7-morpholin-4-yl-quinazolin-4-yl)-phenyl]hydroxy-methyl}-1,4-dimethyl-1H-pyridin-2-one]	7 to 30	500 to 5000	–	–	Ki [1, 4]: > 25000 nM
COc1ccc(C(O)c2cc(-c3ncnc4cc(N5CCOCC5)cnc34)c(F)cc2Cl)nn1 (stereo not drawn) [Example 257, [2-Chloro-4-fluoro-5-(7-morpholin-4-yl-pyrido[3,2-d}-pyrimidin-4-yl)-phenyl]-(6-methoxy-pyridazin-3-yl)-methanol]	3 to 7	500 to 5000	–	–	Ki [1, 4]: > 25000 nM
CCn1nc(C(O)c2cc(-c3ncnc4cc(N5CCOCC5)ccc34)c(F)cc2Cl)ccc1=O (stereo not drawn) [Example 96, 6{[2-Chloro-4-fluoro-5-(7-morpholin-4-yl-quinazolin-4-yl)phenyl]-hydroxymethyl}-2-ethyl-2H-pyridazin-3-one]	–	–	7 to 30	500 to 5000	Ki [1, 6]: > 25000 nM

More lines, main results first:

IC50 ([2]; biochemical DNA-PK assay) [nM]	IC50 [3, 5] [nM]	IC50 ([2]; enzymatic, 5 μM ATP) [nM]	IC50 [3, 7] [nM]	SMILES	other results
–	–	3 to 7	< 500	COc1ncc(Cl)nc1C(O)c1ccc(F)c(-c2ncnc3cc(N4CCOCC4)ccc23)c1 (stereo not drawn) [Example 25, (6-Chloro-3-methoxy-pyrazin-2-yl)-[4-fluoro-3-(7-morpholin-4-yl-quinazolin-4-yl)phenyl]-methanol]	Ki [1, 6]: < 10000 nM
> 30	10000 to 30000	–	–	OC(c1cccnn1)c1cc(-c2ncnc3cc(N4CCOCC4)ccc23)ccc1Cl (single isomer, unassigned) [Example 469, [2-Chloro-5-(7-morpholin-4-yl-quinazolin-4-yl)-phenyl]pyridazin-3-yl-methanol]	Ki ([1]; human, HEK293 cells stably transfected with the hERG gene, Ki [Kv1.11 hERG], hERG patch clamp assay (cells without asterisk)): 10000 to 15000 nM
–	–	< 3	< 500	COc1cnc(C(O)c2ccc(F)c(-c3ncnc4cc(N5CCOCC5)ccc34)c2)c(Cl)c1 (stereo not drawn) [Example 31, (3-Chloro-5-methoxy-pyridin-2-yl)-[4-fluoro-3-(7-morpholin-4-yl-quinazolin-4-yl)phenyl]-methanol]	Ki [1, 8]: 10000 to 15000 nM
–	–	3 to 7	500 to 5000	COc1ccnnc1C(O)c1cc(-c2ncnc3cc(N4CCOCC4)ccc23)c(F)cc1Cl (stereo not drawn) [Example 3, [2-Chloro-4-fluoro-5-(7-morpholin-4-yl-quinazolin-4-yl)phenyl]-(4-methoxy-pyridazin-3-yl)methanol]	Ki [1, 6]: > 25000 nM
< 3	< 500	–	–	OC(c1cc(-c2ncnc3cc(N4CCOCC4)ccc23)ccc1F)c1ncnc2ccsc12 (stereo not drawn) [Example 405, [2-Fluoro-5-(7-morpholin-4-yl-quinazolin-4-yl)-phenyl]thieno[3,2-d}-pyrimidin-4-yl-methanol]	Ki [1, 4]: < 10000 nM
3 to 7	500 to 5000	–	–	COc1cncnc1C(O)c1cc(-c2ncnc3cc(N4CCOCC4)ccc23)ccc1Cl (stereo not drawn) [Example 413, [2-Chloro-5-(7-morpholin-4-yl-quinazolin-4-yl}-phenyl]-(5-methoxy-pyrimidin-4-yl)-methanol]	Ki [1, 9]: 15000 to 25000 nM
3 to 7	500 to 5000	–	–	Cn1ncc2c(C(O)c3cc(-c4ncnc5cc(N6CCOCC6)ccc45)c(F)cc3Cl)ncnc21 (stereo not drawn) [Example 402, [2-Chloro-4-fluoro-5-(7-morpholin-4-yl-quinazolin-4-yl)-phenyl]-(1-methyl-1H-pyrazolo[3,4-d}-pyrimidin-4-yl)-methanol]	Ki [1, 9]: 15000 to 25000 nM
3 to 7	< 500	–	–	CCOc1cccnc1C(O)c1ccc(F)c(-c2ncnc3cc(N4CCOCC4)ccc23)c1 (stereo not drawn) [Example 463, (3-Ethoxy-pyridin-2-yl)-[4-fluoro-3-(7-morpholin-4-yl-quinazolin-4-yl)-phenyl]methanol]	Ki [1, 9]: 15000 to 25000 nM
